Source: the supplement of paper PMC11451515

Test system: SEM cells
Experiment: cell viability relative to DMSO control; higher = less cytotoxic
Details: 48 h
How it was run: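 In 1536-well plates, 5 μl of leukemia cells were seeded per well: 500 cells/well for NOMO1 or SEM and 1000 cells/well for P12-Ichikawa. Each line had first been adapted for at least four passages in each medium. Library compounds in DMSO were pin-dosed at 11 threefold concentrations between 47 μM and 0.79 nM, and CellTiter-Glo One luminescence was read after 48 h at 37°C. Viability is a per-plate percentage relative to DMSO wells, with cell-free wells as background.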

[1] = HPLM + 10% dialyzed FBS, 0.000781 µM
[2] = HPLM + 10% dialyzed FBS, 0.00234 µM
[3] = HPLM + 10% dialyzed FBS, 0.00702 µM
[4] = HPLM + 10% dialyzed FBS, 0.0211 µM
[5] = HPLM + 10% dialyzed FBS, 0.0632 µM
[6] = HPLM + 10% dialyzed FBS, 0.19 µM
[7] = HPLM + 10% dialyzed FBS, 0.569 µM
[8] = HPLM + 10% dialyzed FBS, 1.71 µM
[9] = HPLM + 10% dialyzed FBS, 5.12 µM
[10] = HPLM + 10% dialyzed FBS, 15.4 µM
[11] = HPLM + 10% dialyzed FBS, 46.1 µM
[12] = RPMI 5 mM glucose + 10% FBS, 0.000781 µM
[13] = RPMI 5 mM glucose + 10% FBS, 0.00234 µM
[14] = RPMI 5 mM glucose + 10% FBS, 0.00702 µM
[15] = RPMI 5 mM glucose + 10% FBS, 0.0211 µM
[16] = RPMI 5 mM glucose + 10% FBS, 0.0632 µM
[17] = RPMI 5 mM glucose + 10% FBS, 0.19 µM
[18] = RPMI 5 mM glucose + 10% FBS, 0.569 µM
[19] = RPMI 5 mM glucose + 10% FBS, 1.71 µM
[20] = RPMI 5 mM glucose + 10% FBS, 5.12 µM
[21] = RPMI 5 mM glucose + 10% FBS, 15.4 µM
[22] = RPMI 5 mM glucose + 10% FBS, 46.1 µM
[23] = RPMI 5 mM glucose + 10% dialyzed FBS, 0.000781 µM
[24] = RPMI 5 mM glucose + 10% dialyzed FBS, 0.00234 µM
[25] = RPMI 5 mM glucose + 10% dialyzed FBS, 0.00702 µM
[26] = RPMI 5 mM glucose + 10% dialyzed FBS, 0.0211 µM
[27] = RPMI 5 mM glucose + 10% dialyzed FBS, 0.0632 µM
[28] = RPMI 5 mM glucose + 10% dialyzed FBS, 0.19 µM
[29] = RPMI 5 mM glucose + 10% dialyzed FBS, 0.569 µM
[30] = RPMI 5 mM glucose + 10% dialyzed FBS, 1.71 µM
[31] = RPMI 5 mM glucose + 10% dialyzed FBS, 5.12 µM
[32] = RPMI 5 mM glucose + 10% dialyzed FBS, 15.4 µM
[33] = RPMI 5 mM glucose + 10% dialyzed FBS, 46.1 µM

SMILES | cell viability [1] [%] | cell viability [2] [%] | cell viability [3] [%] | cell viability [4] [%] | cell viability [5] [%] | cell viability [6] [%] | cell viability [7] [%] | cell viability [8] [%] | cell viability [9] [%] | cell viability [10] [%] | cell viability [11] [%] | cell viability [12] [%] | cell viability [13] [%] | cell viability [14] [%] | cell viability [15] [%] | cell viability [16] [%] | cell viability [17] [%] | cell viability [18] [%] | cell viability [19] [%] | cell viability [20] [%] | cell viability [21] [%] | cell viability [22] [%] | cell viability [23] [%] | cell viability [24] [%] | cell viability [25] [%] | cell viability [26] [%] | cell viability [27] [%] | cell viability [28] [%] | cell viability [29] [%] | cell viability [30] [%] | cell viability [31] [%] | cell viability [32] [%] | cell viability [33] [%]
CCCCN1CCC(CNC(=O)c2c3n(c4ccccc24)CCCO3)CC1 | 81.3 | 85.3 | 92.1 | 90.9 | 94.5 | 57.7 | 117 | 107 | 108 | 89.7 | 68.4 | 84.9 | 102 | 112 | 91.3 | 117 | 75.3 | 105 | 118 | 113 | 93.5 | 80.6 | 105 | 101 | 110 | 94.4 | 111 | 67.5 | 103 | 103 | 115 | 79 | 79.8
c1cc2c(cc1[C@H]1OC[C@H]3[C@@H]1CO[C@@H]3c1ccc3c(c1)OCO3)OCO2 | 113 | 105 | 119 | 123 | 126 | 119 | 126 | 110 | 119 | 108 | 92.4 | 124 | 102 | 117 | 129 | 131 | 135 | 117 | 113 | 107 | 100 | 103 | 108 | 115 | 144 | 130 | 113 | 140 | 130 | 132 | 103 | 118 | 86.4
COc1cccc(N(C)C(=S)Oc2ccc3c(c2)CCCC3)n1 | 75.6 | 66.4 | 85.4 | 88.1 | 91.2 | 84 | 95.4 | 82.5 | 76.5 | 82.8 | 65.6 | 75 | 83 | 86.7 | 94 | 104 | 96.2 | 93.1 | 97 | 99.3 | 97.9 | 92.8 | 96.7 | 95.1 | 90.2 | 93.3 | 91.3 | 100 | 101 | 97.5 | 87.8 | 98.5 | 84.6
C/C1=C/C(=C(/CNC(=O)C2=CC(=CC3=C2C=N[N]3C4CCCC4)C5=CC=C(CN6CCOCC6)C=C5)C(=O)N1)C | 113 | 122 | 126 | 23.4 | 117 | 127 | 115 | 115 | 113 | 106 | 7.3 | 97.8 | 103 | 116 | 18.1 | 106 | 96.5 | 83.4 | 93.2 | 92 | 67.5 | 4.27 | 116 | 124 | 132 | 22.7 | 130 | 122 | 118 | 129 | 128 | 126 | 6.82
COc1cc2c(cc1OC)CN(CCc1ccc(NC(=O)c3cccc4c(=O)c5cccc(OC)c5[nH]c34)cc1)CC2 | 84.4 | 98.8 | 103 | 105 | 106 | 109 | 105 | 105 | 36.4 | 8.23 | 5.66 | 91.1 | 85.9 | 82.9 | 90.8 | 77.2 | 83.5 | 85.2 | 9.76 | 8.45 | 5.57 | 4.07 | 108 | 112 | 104 | 112 | 122 | 116 | 94.3 | 24.4 | 11.2 | 5.96 | 3.77
Clc1ccc(C(c2ccc(Cl)cc2)[n+]2ccn(CC(OCc3ccc(Cl)cc3Cl)c3ccc(Cl)cc3Cl)c2)cc1 (stereo unspecified) | 108 | 121 | 107 | 105 | 117 | 112 | 108 | 117 | 117 | 61 | 5.22 | 109 | 111 | 117 | 120 | 132 | 127 | 124 | 111 | 106 | 37.7 | 1.63 | 112 | 117 | 118 | 109 | 108 | 123 | 124 | 115 | 125 | 83.3 | 3.06
O=C(O)c1cccc(-c2noc(-c3ccccc3F)n2)c1 | 106 | 109 | 92.3 | 100 | 101 | 110 | 102 | 104 | 104 | 92.3 | 88.1 | 88.1 | 94.7 | 105 | 94.1 | 99.6 | 107 | 101 | 99.3 | 98.3 | 84.3 | 73.5 | 87.1 | 106 | 106 | 108 | 115 | 94.2 | 122 | 112 | 108 | 95.7 | 85.7
